From article PMC5001616 (Nucleic Acids Research, 2016)
“And” between values parts separate entries of the source, which are not always exact repeats. Identical values can stand only once. Like-named read-outs stand apart in the source and are kept apart here.

How the values were obtained:
WT HIV-1 IN [1] = biological target: T1, WT HIV-1 IN (Human immunodeficiency virus type 1 group M subtype B, UniProt P12497); assay: 3'-processing (3'-P) inhibition, recombinant WT IN, gel-based; format: biochemical
T1 construct: we tested the 3′-P activity of WT and SH mutant integrases; made in house
Method: (§1) Oligonucleotides harboring a tetrahydrofuran group in place of the nucleobase at position −1 (21Ab-1, […]_GT), at position +1 (21Ab+1, […]_T), position +2 (21Ab+2, […]_) and in place of the last 2 bases (21-2Ab, […]__) were purchased from Eurogentec with PAGE purification. 5’-Labeling was performed using T4 polynucleotide kinase (New England Biolabs, Ipswich, MA, USA) with [γ-^32P]-ATP (Perkin-Elmer Life and Analytical Sciences, Boston, MA, USA) according to the manufacturers’ instructions. Unincorporated isotopes were removed using the Mini Quick spin oligo columns (Roche). Duplex substrates were obtained by annealing ‘top’ (21t or 19t) and ‘bottom’ (21b) oligonucleotides at equimolar ratio.
(§2) WT and mutant INs were purified and their enzymatic activities measured as previously reported ([11]). […] 3′-P and ST reactions were performed at 37°C for 120 min unless otherwise indicated.
(§3) Linear regressions, fit curves, IC50 determinations, standard deviations, standard error of the mean and statistical analyses (P-values) were generated using GraphPad Prism software 5.0c. Pearson and Spearman correlations were determined using the following equation: […]

[2] = biological target: G140S-Q148H (SH) mutant HIV-1 IN (Human immunodeficiency virus type 1 group M subtype B, UniProt P12497, G1287S/Q1295H); conditions: abasic substrates vs normal substrate
Method: as §1, §2, §3

WT HIV-1 intasome = conditions: cited from earlier work
WT HIV-1 IN [3] = biological target: T1, WT HIV-1 IN; conditions: read-out: IC50, inhibition of ST; cited from earlier work

## C[C@@H]1CCO[C@H]2Cn3cc(C(=O)NCc4ccc(F)cc4F)c(=O)c(O)c3C(=O)N12 [DTG, dolutegravir]
WT HIV-1 IN [1]; IC50 for 3'-P divided by IC50 for ST
  Selectivity index (SI) for 3'-P/ST: 50
WT HIV-1 IN [1]; read-out: IC50, inhibition of 3'-P, canonical CAGT substrate, 120 min
  IC50: 1640 nM and 1600 nM
[2]
  Increase of IC50 for 3'-P on removing either the -1 or +1 base: about 100 fold
WT HIV-1 intasome; longer than EVG
  Time bound to the WT HIV-1 intasome relative to EVG: 26 fold
WT HIV-1 intasome; longer than RAL
  Time bound to the WT HIV-1 intasome relative to RAL: 8 fold
WT HIV-1 IN [3]
  IC50: 33 nM
